Measured values published in patent publication US6900315B2, “2-amino-9H-purin-9-yl compounds and methods for inhibiting/treating HIV infections and AIDS related symptoms” (Yale University, priority 2001, dated 2005).
Where two headings read alike, the source gives them in different places.

What was measured:
HIV [1] = conditions: cited from earlier work
HIV IIIB = assay: Anti-HIV activity in MT-2 cells infected with HIV IIIB, MTT dye cell viability; type: cell-based; conditions: for EC50: Human immunodeficiency virus 1, IIIB, MT2, 120 h, read-out: EC50 (concentration necessary to save 50% of the cells); for anti-HIV activity: summary of Table 1
Method: To assess the ability of the compounds according to the present invention to inhibit viral infection relative to other compounds experiments were performed in the MT-2 cell line, as previously described by Larder, et al., Antimicrobial Agents & Chemotherapy, vol. 34, 436 (1990). […] Cells were infected at an initial multiplicity of infection (MOI) of 0.1 and grown for 5 days. Cell viability was assessed by the use of dye metabolized by viable cells.

MT-2 = assay: Toxicity, dye based cell growth assay in absence of HIV, MT-2; conditions: Homo sapiens, MT2, 120 h, read-out: IC50 (inhibited 50% of the cell growth)
Method: (§1) To determine the toxicity of the compounds to various cell lines (Table 1, below), a similar dye based assay is performed in the absence of HIV. The toxicity of the compounds alone therefore was determined.

CEM = assay: Toxicity, dye based cell growth assay, CEM; conditions: Homo sapiens, CCRF-CEM, 120 h, read-out: IC50 (inhibited 50% of the cell growth)
Method: as §1

HEP-G2 = assay: Toxicity, dye based cell growth assay, HEP-G2; conditions: Homo sapiens, HepG2, 120 h, read-out: IC50 (inhibited 50% of the cell growth)
Method: as §1

KB = assay: Toxicity, dye based cell growth assay, KB; conditions: Homo sapiens, 120 h
Method: as §1

HeLa = assay: Toxicity, dye based cell growth assay, HeLa; conditions: Homo sapiens, 120 h
Method: as §1

[2] = system: mitochondrial DNA in CEM cells; assay: Mitochondrial toxicity: ratio of mitochondrial DNA to Alu repeat in CEM cells; type: cell-based; conditions: 8 days
From the text: After 8 days of growth the cells were lysed and probed for the amount of mitochondrial DNA and normalized for differences in the amount of total DNA by probing for the Alu repeat. By comparing the amount of mitochondrial DNA to the amount of Alu repeat the % decrease in mitochondrial DNA in the presence of various concentrations of drug can be obtained. All experiments were done in triplicate. Techniques which are presented here have been previously described in Chen and Cheng, J. Biol. Chem., vol. 264, 11934-7 (1989).

HIV [3] = assay: Anti-HIV drug combination (synergy, isobologram of FEC50) in cell culture; type: cell-based; conditions: for anti-HIV interaction in combination with AZT: FIG. 4, D4T with AZT data not shown
Method: Points on this line represent the compounds working independently.
In an attempt to understand how D4G prodrugs of the present invention would interact with other clinically approved compounds, experiments were performed with drug combinations. […] Points on the line represent two compounds working independently. […] See, Bridges, et al., Biochem. Pharmacol., 51, 731 (1996) and Dutschman, et al., Antimicro. Agents Chemother. 42, 1799 (1998).

HIV [4] = conditions: pairs: D4T and AZT, 3TC and ddC, FD4C and 3TC, abacavir and cyclo D4G; Bridges et al., Dutschman et al.; cited from earlier work
HIV [5] = assay: Effect of mycophenolic acid on anti-HIV activity of nucleoside analogs in cell culture; type: cell-based
Method: FIG. 2 presents table 6 and indicates the effect that mycophenolic acid has on the anti-HIV activity of the indicated nucleoside analogs. In the experiment depicted in this Figure, 1×10^5 cells/ml were incubated with or without 200 nM mycophenolic acid for 30 minutes and then added to wells containing nucleoside analogs to test for toxicity and anti-HIV activity. The date presented is representative of at least two independent trials.
In cell culture, the mechanism of activation for D4G prodrugs has been investigated with the initial model compound cyclo D4G. […] Experiments with mycophenolic acid, an inhibitor of inosine monophosphate (IMP) dehydrogenase have been used to study the guanine dependence of activation for cyclo D4G. The addition of mycophenolic acid results in an increase in cellular IMP and a decrease in GMP and all other guanine containing nucleosides and nucleotides. […]. The data which is presented is representative of at least two independent trials. Furthermore, cyclo D4G's activity could be rescued by the addition of guanine to the media (data not shown).

[6] = target: T1, wild type HIV-1 reverse transcriptase (Human immunodeficiency virus type 1 group M subtype B, UniProt P04585); assay: Kinetics of nucleotide incorporation by wild type HIV-1 reverse transcriptase; type: biochemical; parameters: kpol/Kd: unit not given here
T1 construct: a mixture of 100 nM HIV-1 reverse transcriptase and 300 nM primer/template
Method: Continued research on the guanosine prodrug approach for making D4G a viable anti-HIV agent has yielded a number of new findings. In the present example, enzyme kinetics for the incorporation of the active metabolites of guanosine prodrugs with wild type HIV-1 reverse transcriptase was determined. In this experiment, a mixture of 100 nM HIV-1 reverse transcriptase and 300 nM primer/template in which the correct base incorporation is a guanine nucleotide was rapidly mixed with nucleotide in the presence of 50 mM Tris, 50 mM NaCl and 10 mM MgCl2 for a set amount of time and then the reaction was stopped by the addition 300 mM of EDTA.

[7] = target: T2, mitochondrial polymerase gamma (Homo sapiens, UniProt P54098); assay: Nucleotide incorporation by mitochondrial polymerase gamma into an elongating DNA strand; type: biochemical
T2 sequence (P54098 1-1239): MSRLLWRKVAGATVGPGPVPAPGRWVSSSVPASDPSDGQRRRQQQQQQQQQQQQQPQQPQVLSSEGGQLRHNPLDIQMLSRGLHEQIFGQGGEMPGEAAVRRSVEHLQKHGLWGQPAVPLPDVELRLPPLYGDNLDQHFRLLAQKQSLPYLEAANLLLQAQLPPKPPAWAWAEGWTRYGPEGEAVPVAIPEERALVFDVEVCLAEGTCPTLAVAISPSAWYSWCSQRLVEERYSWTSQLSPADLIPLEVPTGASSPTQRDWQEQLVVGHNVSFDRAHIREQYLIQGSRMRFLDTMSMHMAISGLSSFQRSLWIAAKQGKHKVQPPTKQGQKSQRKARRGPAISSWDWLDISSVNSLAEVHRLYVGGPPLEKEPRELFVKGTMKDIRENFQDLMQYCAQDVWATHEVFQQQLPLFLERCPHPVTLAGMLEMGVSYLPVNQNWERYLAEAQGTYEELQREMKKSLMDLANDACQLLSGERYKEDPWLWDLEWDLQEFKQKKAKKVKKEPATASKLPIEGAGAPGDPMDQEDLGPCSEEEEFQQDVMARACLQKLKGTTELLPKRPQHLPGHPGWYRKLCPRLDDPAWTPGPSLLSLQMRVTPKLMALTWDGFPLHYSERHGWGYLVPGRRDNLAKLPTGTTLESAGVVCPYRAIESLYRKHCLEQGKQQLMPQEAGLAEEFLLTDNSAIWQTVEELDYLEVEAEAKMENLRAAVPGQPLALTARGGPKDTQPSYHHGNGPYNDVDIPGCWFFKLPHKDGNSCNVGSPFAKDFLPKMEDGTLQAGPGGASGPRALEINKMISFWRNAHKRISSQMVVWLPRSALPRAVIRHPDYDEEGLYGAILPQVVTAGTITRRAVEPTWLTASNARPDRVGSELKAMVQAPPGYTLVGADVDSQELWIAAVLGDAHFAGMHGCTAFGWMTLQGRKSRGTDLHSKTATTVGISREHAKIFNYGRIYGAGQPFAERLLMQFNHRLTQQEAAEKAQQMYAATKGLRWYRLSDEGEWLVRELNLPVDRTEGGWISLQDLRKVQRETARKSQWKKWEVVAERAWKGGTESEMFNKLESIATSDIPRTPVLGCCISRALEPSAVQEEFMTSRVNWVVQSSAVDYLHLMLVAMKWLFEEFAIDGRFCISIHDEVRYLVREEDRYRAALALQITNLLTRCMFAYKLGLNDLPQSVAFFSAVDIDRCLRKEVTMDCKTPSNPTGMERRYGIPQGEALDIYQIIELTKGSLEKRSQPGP

[8] = target: T2, mitochondrial polymerase gamma; assay: Exonuclease removal from chain terminated primer template by mitochondrial polymerase gamma; type: biochemical
[9] = read-out: IC50 (inhibited 50% of the cell growth)
[10] = MT-2, HTLV infected T cell line, 5 days
[11] = HEP-G2, hepatoma cell line, 5 days
[12] = read-out: IC50 (inhibited 50% of the cell growth), oral carcinoma, 5 days
[13] = read-out: IC50 (inhibited 50% of the cell growth), cervical cancer cell line, 5 days
[14] = Table 4, primer/template DNA/DNA, RT WT
[15] = Table 4, primer/template DNA/RNA, RT WT
[16] = mitochondrial polymerase gamma, incorporation

## Nc1nc2c(ncn2[C@H]2C=C[C@@H](CO)C2)c(=O)[nH]1 [carbovir]
HIV [1]
  previously reported activity against HIV: significant activity

## Cc1cn([C@H]2C=C[C@@H](CO)O2)c(=O)[nH]c1=O [d4T, 2′,3′-didehydro-2′,3′-dideoxythymidine]
HIV IIIB
  EC50: 3 ± 0.7 µM
MT-2
  IC50: > 100 µM
CEM
  IC50: 190 ± 30 µM
HEP-G2
  IC50: 390 ± 26 µM
KB; [9]
  IC50: 450 ± 47 µM
HeLa; [9]
  IC50: 480 ± 31 µM
[2]; compound 1 μM, CEM cells
  % Control (mtDNA/Alu): 110%
  Ration of mtDNA/Alu: 1.18 ± 0.03
[2]; compound 10 μM, CEM cells
  % Control (mtDNA/Alu): 94%
  Ration of mtDNA/Alu: 1.00 ± 0.02
[2]; compound 200 μM, CEM cells
  % Control (mtDNA/Alu): 21%
  Ration of mtDNA/Alu: 0.22 ± 0.03
HIV [3]
  anti-HIV interaction in combination with AZT: only additive
HIV [4]
  anti-HIV interaction of two analogs of the same base: not synergistic

## Nc1nc(NC2CC2)c2ncn([C@H]3C=C[C@@H](CO)O3)c2n1 [Cd4G, 2-Amino-6-cyclopropylamino-9-(2,3-dideoxy-β-D-glycero-pent-2-enofuranosyl)purine]
HIV IIIB
  EC50: 8 µM
  anti-HIV activity: strong anti-HIV activity
MT-2; [10]
  IC50: 100 ± 22 µM
CEM; CEM, T cell line, 5 days
  IC50: 200 ± 31 µM
HEP-G2; [11]
  IC50: > 500 µM
KB; [12]
  IC50: > 500 µM
HeLa; [13]
  IC50: 500 ± 33 µM
[2]; human
  mitochondrial toxicity: lower mitochondrial toxicity than D4T
[2]; human, 1 μM
  % Control (mtDNA/Alu): 99%
  Ration of mtDNA/Alu: 1.06 ± 0.11
[2]; human, 10 μM
  % Control (mtDNA/Alu): 84%
  Ration of mtDNA/Alu: 0.90 ± 0.06
[2]; human, 200 μM
  % Control (mtDNA/Alu): 43%
  Ration of mtDNA/Alu: 0.46 ± 0.06
HIV [5]; 200 nM mycophenolic acid, 30 minutes, 1×10^5 cells/ml
  fold less active (anti-HIV) in the presence of mycophenolic acid: 3 fold
HIV [5]; in the presence of mycophenolic acid, data not shown
  anti-HIV activity on addition of guanine to the media: rescued
HIV [3]; FIG. 3 and FIG. 4
  anti-HIV interaction in combination with 3TC: synergistic
HIV [3]; FIG. 4
  anti-HIV interaction in combination with D4T: somewhat synergistic
HIV [3]
  anti-HIV interaction in combination with AZT: synergistic

## Nc1nc2c(ncn2[C@H]2C=C[C@@H](COP(=O)(O)OP(=O)(O)OP(=O)(O)O)O2)c(=O)[nH]1 [D4GTP]
[6]; Table 3, substrate DNA/DNA
  Kd: 11 ± 2 µM
  Selectivity = (kpol/Kd)dGTP/(kpol/Kd)analog: 1.5
  kpol: 11 ± 1 s⁻¹
  kpol/Kd: 1.1 ± 0.26
[6]; Table 3, substrate DNA/RNA
  Kd: 9.5 ± 1.1 µM
  Selectivity = (kpol/Kd)dGTP/(kpol/Kd)analog: 2
  kpol: 13 ± 0.5 s⁻¹
  kpol/Kd: 1.4 ± 0.2
[6]; [14]
  Efficiency: 1.1 ± 0.3 s^−1μM^−1
  Kd: 11 ± 2 µM
  Selectivity = efficiency dGTP/efficiency analog: 2
  kpol: 11 ± 1 s⁻¹
[6]; [15]
  Efficiency: 1.4 ± 0.2 s^−1μM^−1
  Kd: 9.5 ± 1.1 µM
  Selectivity = efficiency dGTP/efficiency analog: 2
  kpol: 13 ± 0.5 s⁻¹
[7]; fold increase in time for mitochondrial replication, 1 = no toxicity
  Toxicity Index: 320
[7]; [16]
  Kd: 0.61 ± 0.13 µM
  kpol: 0.27 ± 0.02 s⁻¹
  kpol/Kd: 450000 ± 99000 M⁻¹ s⁻¹
[8]
  kexo: 0.00046 ± 0.000021 s⁻¹

## Nc1nc2c(ncn2[C@H]2C=C[C@@H](CO)O2)c(=O)[nH]1 [d4G, 9-(2,3-Dideoxy-β-D-glycero-pent-2-enofuranosyl)guanine]
HIV IIIB
  anti-HIV activity: complete inactivity
MT-2; [10]
  IC50: 40 ± 9 µM
CEM; CEM, T cell line, 5 days
  IC50: 70 ± 11 µM
HEP-G2; [11]
  IC50: 280 ± 19 µM
KB; [12]
  IC50: > 500 µM
HeLa; [13]
  IC50: 200 ± 13 µM
[2]; human, 1 μM
  % Control (mtDNA/Alu): 105%
  Ration of mtDNA/Alu: 1.12 ± 0.17
[2]; human, 10 μM
  % Control (mtDNA/Alu): 106%
  Ration of mtDNA/Alu: 1.14 ± 0.07
HIV [1]
  previously reported activity against HIV: inactive
